Results reported in patent publication US8309546B2, “Morpholinopurine derivatives” (Daiichi Sankyo Company, Limited, priority 2008, dated 2012).

Tests used:
[1] = tested on: human colon cancer cell strain HT29; assay: Cell growth inhibition test (MTT), HT29; format: cell-based; details: HT-29, 72 h, HT29, 3 days culture, read-out: concentration exhibiting anti-cell effect (GI50)
Description: (§1) After a cultured cancer cell strain was treated with a test compound for a predetermined period, a cell growth inhibition test was performed by measuring the living cell count by the 3-(4,5-dimethylthiazol-2-yl)-2,5-diphenyltetrazoliumbromide (MTT) method.
(§2) Human endometrial cancer cell strain AN3CA, human ovary cancer cell strain IGROV1, and human colon cancer cell strain HT29 were seeded in a 96-well plate at 5000, 1000, and 5000 cells, respectively, per well. On the following day of seeding, a test compound having a predetermined concentration was added and the culture was continued at 37° C. in 5% CO2 for 3 days. On the final day of culture, an MTT reaction solution was added and the resulting mixture was reacted for 4 hours to form formazan by dehydrogenases contained in living cells. Subsequently, the culture broth was removed, DMSO was added to solubilize formazan, and the amount of produced formazan was determined by measuring absorbance at 540 nm using a microplate reader.
(§3) Since correlations of the amount of produced formazan and the living cell count had been confirmed, the cell growth rate was calculated by the following formula. Cell growth rate (T/C %) after addition of test compound=100×[(B−C)/(A−C)] A: Absorbance of well not containing test compound (final culture day) B: Absorbance of well containing test compound (final culture day) C: Absorbance of well immediately before addition of test compound (following day of cell seeding)
(§4) Furthermore, the cell growth rate at each concentration of serially diluted test compound solutions was obtained, and the concentration of the test compound resulting in a 50% growth rate was obtained as the GI50 value from two concentrations including 50% therebetween and the growth rates were selected.

[2] = tested on: human endometrial cancer cell strain AN3CA; assay: Cell growth inhibition test (MTT), AN3CA; format: cell-based; details: AN3-CA, 72 h, 3 days culture, read-out: concentration exhibiting anti-cell effect (GI50)
Description: as §1, §2, §3, §4

[3] = tested on: human ovary cancer cell strain IGROV1; assay: Cell growth inhibition test (MTT), IGROV1; format: cell-based; details: IGROV-1, 72 h, IGROV1, 3 days culture, read-out: concentration exhibiting anti-cell effect (GI50)
Description: as §1, §2, §3, §4

[4] = target: PI3Kα (Homo sapiens, UniProt P42336); assay: PI3K kinase activity inhibition assay; format: biochemical; details: Kinase-Glo Plus ATP detection, read-out: IC50 against PI3K
Description: PI3Kα kinase activity was determined in the presence and absence of a test compound. The test compound was dissolved in DMSO and diluted serially with an ATP solution (30 μm ATP, 50 mM HEPES, pH 7.4, 50 mM NaCl, 0.05% CHAPS, 10 mM MgCl2, and 5 mM dithiothreitol [DTT]). First, 7 μl each of the serially diluted test compound solutions was added to each well of a black 384-well plate. Subsequently, 7 μl of a phosphatidylinositol 4,5-bisphosphate (PIP2) solution (45 μm PIP2, 50 mM HEPES, pH 7.4, 50 mM NaCl, 0.05% CHAPS, 10 mM MgCl2, and 5 mM DTT) was added to each well of the 384-well plate. Finally, 7 μl of a solution containing PI3Kα (50 nM PI3Kα, 50 mM HEPES, pH 7.4, 50 mM NaCl, 0.05% CHAPS, 10 mM MgCl2, and 5 mM DTT) was added to each well of the 384-well plate to initiate a reaction. The mixture was reacted at room temperature for 2 hours and then 21 μl of the Kinase-Glo Plusreagent (Promega) was, added to each well of the 384-well plate to terminate the reaction. After the termination of the reaction, the solution was left standing for 15 minutes and then luminescence was measured with ARVO (PerkinElmer Co., Ltd.) to detect ATP remaining in the reaction solution.
The amount of ATP consumed in the reaction was obtained for each well and used as an indicator of PI3Kαkinase activity. The PI3Kα kinase activity in wells not containing the test compound was calculated by the following formula (1). Furthermore, the PI3Kα kinase activity in wells containing the test compound was calculated by the following formula (2). The PI3Kα inhibitory activity (%) of the test compound was calculated by the following formula (3). PI3Kα kinase activity in wells not containing the test compound=B−C (1) PI3Kα kinase activity in wells containing the test compound=B−P (2) PI3Kα inhibitory activity (%) of test compound=100−100×[(B−P)/(B−C)] (3) B: Measured value in wells not containing PI3Kα or the test compound C: Measured value in wells containing PI3Kα and not containing the test compound P: Measured value in wells containing PI3Kα and the test compound
Furthermore, an optimal curve was calculated with Graph Pad Prism 4 using concentrations of the serially diluted test compound solutions and PI3Kα inhibitory activity (%) at each concentration to obtain the concentration showing 50% inhibition as the IC50 value of PI3Kα inhibitory activity.

[5] = target: T1, human mTOR (His-tagged mTOR (1362C)) (Homo sapiens, UniProt P42345); assay: mTOR kinase activity inhibition assay; format: biochemical; details: HTRF, read-out: IC50 against mTOR
T1 construct: the 1362 to 2549 amino acid portion on the C terminus side of human mTOR; His tag (N); made in house
Description: The mTOR kinase activity was determined in the presence and absence of a test compound. A substrate peptide is phosphorylated by mTOR kinase activity. A complex of streptavidin-XL665 and anti-phosphorylated S6K (Thr389) antibody-anti-mouse IgG-cryptate binds to this phosphorylated peptide. At this time, irradiation of excitation light induces transfer of fluorescence resonance energy from the excited cryptate to XL665, emitting fluorescence at 665 nm. Utilizing this principle, mTOR kinase activity was detected. When the mTOR inhibitor is present, phosphorylation of a substrate peptide is inhibited, and the biding of the above-mentioned complex to the substrate peptide is inhibited.
A His tag was introduced into the N terminus end of the 1362 to 2549 amino acid portion on the C terminus side of human mTOR, and a cell line was prepared, so that His-tagged mTOR should be constantly expressed in a HEK293 cell. A cell lysate was prepared from this HEK293 cell which constantly expressed His-tagged mTOR (1362C), and a crude product of His-tagged mTOR (1362C) was obtained by a usual method utilizing His tag.
Subsequently, an mTOR enzyme solution was prepared which contained the above-mentioned His-tagged mTOR (1362C) enzyme and 8 μg/ml biotinylated peptide (Biotin-Ahx-[…]-amide [Sigma]), as well as 50 mM HEPES (pH 7.5), 20 mM MnCl2, 1 mg/ml BSA, a suitable amount of protease inhibitor cocktail (Complete EDTA free, Roche Ltd.), 100 ng/ml calyculin A, and 4 μg/ml cantharidin as other components.
The test compound was dissolved in dimethyl sulfoxide (DMSO) and serially diluted with 20 μm ATP solution (50 mM HEPES (pH 7.5), 20 μM ATP) to obtain concentrations required for the assay. 5 μl of this compound solution was added to each well of a 384-well small volume white plate manufactured by Greiner Bio-One Co., Ltd.
5 μl of the mTOR enzyme solution was added to the above-mentioned well containing the test compound and the resulting mixture was left standing for 3 hours room temperature to proceed an enzymatic reaction.
The same procedure was performed using a solution obtained by dissolving DMSO in 20 μM ATP solution as a positive control and a solution obtained by dissolving DMSO in 50 mM HEPES buffer (pH 7.5) as a negative control.
After the enzymatic reaction, 5 μl each of an europium solution (a solution obtained by dissolving anti-mouse IgG-cryptate [SCETI Medical Labo K.K.] and anti-phosphorylation S6K [Thr389] antibody [Cell Signaling Technology Inc.] in 50 mM HEPES [pH 7.5], 100 mM EDTA, and 1.5 mg/ml BSA) and an XL665 solution (a solution obtained by dissolving Streptavidin-XL 665 [SCETI Medical Labo K.K.] in 50 mM HEPES [pH 7.5], 100 mM EDTA, 0.8 M KF, and 1.5 mg/ml BSA) were added in this order and mixed and the resulting mixture was left standing overnight at 4° C. On the following day, the mixture was returned to room temperature and then irradiated with 337-nm excitation light and fluorescence at 620 and 665 nm was measured with RUBYstar (BMG LABTECH JAPAN Ltd.).
mTOR inhibitory activity (%) was calculated using the ratio calculated from the measured values as an indicator of enzyme activity. Here, the ratio was calculated by the following formula (1). Ratio=10,000×fluorescence at 665 nm/fluorescence at 620 nm (1)
mTOR enzyme inhibitory activity (%) was calculated by the following formula (2). mTOR enzyme inhibitory activity (%)=100×[(P−S)/(P−N)] (2) P: Ratio in positive control well N: Ratio in negative control well S: Ratio in well containing the test compound
Furthermore, an optimal curve was created using the concentrations of the serially diluted test compound solutions and mTOR enzyme inhibitory activity (%) at each concentration to obtain the concentration showing 50% inhibition as the IC50 value of mTOR enzyme inhibitory activity.

PI3Kα, sequence (P42336 whole entry, species assumed): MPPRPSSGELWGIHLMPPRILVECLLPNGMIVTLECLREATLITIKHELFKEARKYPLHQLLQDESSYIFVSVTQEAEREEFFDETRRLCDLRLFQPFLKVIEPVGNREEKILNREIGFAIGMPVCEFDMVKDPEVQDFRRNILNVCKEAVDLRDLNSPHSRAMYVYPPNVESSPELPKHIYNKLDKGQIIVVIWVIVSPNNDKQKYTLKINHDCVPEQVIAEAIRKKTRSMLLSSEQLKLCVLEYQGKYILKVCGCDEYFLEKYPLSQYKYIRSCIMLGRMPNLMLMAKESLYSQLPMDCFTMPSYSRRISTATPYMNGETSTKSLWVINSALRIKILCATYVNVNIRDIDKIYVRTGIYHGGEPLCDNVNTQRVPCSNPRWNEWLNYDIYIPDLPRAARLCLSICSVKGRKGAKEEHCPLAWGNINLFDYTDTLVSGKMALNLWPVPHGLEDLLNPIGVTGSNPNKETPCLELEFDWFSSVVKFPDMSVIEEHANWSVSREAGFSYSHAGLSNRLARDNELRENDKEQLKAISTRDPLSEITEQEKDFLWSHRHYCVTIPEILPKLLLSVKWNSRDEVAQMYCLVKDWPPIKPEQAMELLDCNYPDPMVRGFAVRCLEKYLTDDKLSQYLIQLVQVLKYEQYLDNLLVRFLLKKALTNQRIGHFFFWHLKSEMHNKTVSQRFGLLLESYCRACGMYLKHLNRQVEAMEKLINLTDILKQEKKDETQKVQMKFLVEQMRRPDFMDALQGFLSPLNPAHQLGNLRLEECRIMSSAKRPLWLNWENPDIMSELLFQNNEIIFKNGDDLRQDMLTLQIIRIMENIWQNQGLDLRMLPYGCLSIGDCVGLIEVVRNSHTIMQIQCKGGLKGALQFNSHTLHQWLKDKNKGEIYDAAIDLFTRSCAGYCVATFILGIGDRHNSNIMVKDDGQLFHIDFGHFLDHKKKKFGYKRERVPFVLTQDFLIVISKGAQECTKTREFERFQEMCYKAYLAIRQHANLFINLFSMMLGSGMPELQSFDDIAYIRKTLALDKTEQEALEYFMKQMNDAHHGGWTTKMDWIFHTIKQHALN
PI3Kα, sequence (P27986 whole entry partner, species assumed): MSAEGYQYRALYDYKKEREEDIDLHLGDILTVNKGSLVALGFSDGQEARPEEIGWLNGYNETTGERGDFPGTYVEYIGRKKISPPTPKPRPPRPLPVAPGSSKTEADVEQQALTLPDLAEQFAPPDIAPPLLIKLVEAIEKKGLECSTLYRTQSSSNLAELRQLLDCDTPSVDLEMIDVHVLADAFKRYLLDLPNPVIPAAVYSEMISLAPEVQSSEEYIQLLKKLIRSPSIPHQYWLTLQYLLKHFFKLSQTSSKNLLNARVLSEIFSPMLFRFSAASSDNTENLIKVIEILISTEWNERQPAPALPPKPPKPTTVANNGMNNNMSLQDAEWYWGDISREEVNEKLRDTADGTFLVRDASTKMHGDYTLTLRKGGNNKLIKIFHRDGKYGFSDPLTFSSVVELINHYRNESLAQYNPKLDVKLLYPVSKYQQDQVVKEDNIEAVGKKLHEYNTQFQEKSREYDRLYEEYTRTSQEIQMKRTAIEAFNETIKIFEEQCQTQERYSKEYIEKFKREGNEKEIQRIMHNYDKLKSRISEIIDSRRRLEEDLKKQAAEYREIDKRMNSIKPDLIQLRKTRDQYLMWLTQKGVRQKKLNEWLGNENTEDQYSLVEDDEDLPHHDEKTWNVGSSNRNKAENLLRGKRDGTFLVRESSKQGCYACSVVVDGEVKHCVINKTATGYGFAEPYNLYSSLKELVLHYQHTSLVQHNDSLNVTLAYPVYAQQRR
T1 sequence (P42345 1362-2549): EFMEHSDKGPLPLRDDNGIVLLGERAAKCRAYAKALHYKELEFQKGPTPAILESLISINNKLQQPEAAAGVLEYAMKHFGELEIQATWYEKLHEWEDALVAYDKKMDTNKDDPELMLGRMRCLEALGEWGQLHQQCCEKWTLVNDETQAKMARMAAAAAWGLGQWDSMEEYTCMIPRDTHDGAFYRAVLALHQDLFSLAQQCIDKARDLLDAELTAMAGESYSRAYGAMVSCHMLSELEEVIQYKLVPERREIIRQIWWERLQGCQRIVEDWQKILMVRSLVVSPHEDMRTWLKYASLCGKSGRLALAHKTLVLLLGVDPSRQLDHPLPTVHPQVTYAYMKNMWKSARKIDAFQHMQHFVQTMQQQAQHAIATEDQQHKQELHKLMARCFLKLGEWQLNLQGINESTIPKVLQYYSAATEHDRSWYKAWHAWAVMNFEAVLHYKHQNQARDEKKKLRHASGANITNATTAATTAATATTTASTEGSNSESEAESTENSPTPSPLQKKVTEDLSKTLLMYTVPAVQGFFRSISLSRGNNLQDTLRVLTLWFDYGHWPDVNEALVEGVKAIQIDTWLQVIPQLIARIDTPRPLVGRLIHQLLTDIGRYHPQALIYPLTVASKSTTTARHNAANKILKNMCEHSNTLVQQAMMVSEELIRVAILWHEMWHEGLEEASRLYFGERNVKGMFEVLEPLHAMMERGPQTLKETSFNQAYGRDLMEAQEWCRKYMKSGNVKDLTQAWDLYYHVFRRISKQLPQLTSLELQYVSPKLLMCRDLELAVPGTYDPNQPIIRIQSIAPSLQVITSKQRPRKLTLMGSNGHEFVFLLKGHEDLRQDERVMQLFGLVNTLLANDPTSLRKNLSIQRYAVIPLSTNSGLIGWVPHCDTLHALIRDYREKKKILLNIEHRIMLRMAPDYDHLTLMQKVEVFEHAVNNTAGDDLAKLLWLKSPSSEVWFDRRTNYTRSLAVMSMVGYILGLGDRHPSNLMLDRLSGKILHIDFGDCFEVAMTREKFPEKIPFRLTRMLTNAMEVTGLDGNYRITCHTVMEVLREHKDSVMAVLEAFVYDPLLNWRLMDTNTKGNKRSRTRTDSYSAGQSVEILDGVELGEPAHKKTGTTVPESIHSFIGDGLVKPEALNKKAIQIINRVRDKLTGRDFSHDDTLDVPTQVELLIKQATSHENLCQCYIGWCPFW

Cc1nc(N)ncc1-c1nc(N2CCOCC2)c2nc(NCCN3CCOCC3)n(CC3CC3)c2n1 [Example 22, 2-(2-Amino-4-methylpyrimidin-5-yl)-9-(cyclopropylmethyl)-6-morpholin-4-yl-N-(2-morpholin-4-ylethyl)-9H-purin-8-amine] was tested, and the GI50 [1] was at most 5000 nM, the GI50 [2] was at most 5000 nM and the GI50 [3] was at most 5000 nM. For the same compound, the IC50 [4] was 10 to 20 nM and the IC50 [5] was at least 500 nM.

CN(C)CC(=O)N1CCN(c2nc3c(N4CCOCC4)nc(-c4cnc(N)nc4)nc3n2CC2CC2)CC1 [Example 40, 5-[9-(Cyclopropylmethyl)-8-{4-[(dimethylamino)acetyl]piperazin-1-yl}-6-morpholin-4-yl-9H-purin-2-yl]pyrimidin-2-amine] was tested, and the GI50 [1] was at most 5000 nM, the GI50 [2] was at most 5000 nM and the GI50 [3] was at most 5000 nM. The IC50 [4] was 10 to 20 nM and the IC50 [5] was 100 to 500 nM.

CC(C)Cn1c(N2CCN[C@H](C)C2)nc2c(N3CCOCC3)nc(-c3cnc(N)nc3)nc21 [Example 52, 5-{9-Isobutyl-8-[(3R)-3-methylpiperazin-1-yl]-6-morpholin-4-yl-9H-purin-2-yl}pyrimidin-2-amine] gave a GI50 [1] of at most 5000 nM, a GI50 [2] of at most 5000 nM and a GI50 [3] of at most 5000 nM. The IC50 [4] was under 10 nM and the IC50 [5] was 30 to 100 nM.

Compound CNc1ncc(-c2nc(N3CCOCC3)c3nc(N4C[C@@H](C)N[C@@H](C)C4)n(CC4CC4)c3n2)cn1 [Example 16, 5-{9-(Cyclopropylmethyl)-8-(cis-3,5-dimethylpiperazin-1-yl)-6-morpholin-4-yl-9H-purin-2-yl}-N-methylpyrimidin-2-amine] has a GI50 [1] of at most 5000 nM, a GI50 [2] of at most 5000 nM and a GI50 [3] of at most 5000 nM. For the same compound, the IC50 [4] was 20 to 50 nM and the IC50 [5] was 30 to 100 nM.

CNc1ncc(-c2nc(N3CCOCC3)c3nc(N4CCOCC4)n(CC4CCOC4)c3n2)cn1 (centres unmarked) [Example 24, 5-[6,8-Dimorpholin-4-yl-9-(tetrahydrofuran-3-ylmethyl)-9H-purin-2-yl]-N-methylpyrimidin-2-amine] was tested, and the GI50 [1] was at most 5000 nM, the GI50 [2] was at most 5000 nM and the GI50 [3] was at most 5000 nM. It also gave an IC50 [4] of 50 to 100 nM and an IC50 [5] of 100 to 500 nM.

For C[C@H]1CN(c2nc3c(N4CCOCC4)nc(-c4cnc(N)nc4)nc3n2CC(F)(F)F)CCN1 [Example 58, 5-{8-[(3S)-3-Methylpiperazin-1-yl]-6-morpholin-4-yl-9-(2,2,2-trifluoroethyl)-9H-purin-2-yl}pyrimidin-2-amine], the GI50 [1] was at most 5000 nM, the GI50 [2] was at most 5000 nM and the GI50 [3] was at most 5000 nM. It also gave an IC50 [4] of under 10 nM and an IC50 [5] of 10 to 30 nM.

Cc1nc(N)ncc1-c1nc(N2CCOCC2)c2nc(N3CC[C@H](NS(C)(=O)=O)C3)n(CC3CC3)c2n1 [Example 73, N-{(3S)-1-[2-(2-Amino-4-methylpyrimidin-5-yl)-9-(cyclopropylmethyl)-6-morpholin-4-yl-9H-purin-8-yl]pyrrolidin-3-yl}methanesulfonamide] was tested, and the GI50 [1] was at most 5000 nM, the GI50 [2] was at most 5000 nM and the GI50 [3] was at most 5000 nM. For the same compound, the IC50 [4] was under 10 nM and the IC50 [5] was at least 500 nM.

For Cc1nc(N)ncc1-c1nc(N2CCOCC2)c2nc(N3CCC(N(C)S(C)(=O)=O)C3)n(CC3CC3)c2n1 (centres unmarked) [Example 34, N-{1-[2-(2-Amino-4-methylpyrimidin-5-yl)-9-(cyclopropylmethyl)-6-morpholin-4-yl-9H-purin-8-yl]pyrrolidin-3-yl}-N-methylmethanesulfonamide], the GI50 [1] was at most 5000 nM, the GI50 [2] was at most 5000 nM and the GI50 [3] was at most 5000 nM. The IC50 [4] was 10 to 20 nM and the IC50 [5] was 100 to 500 nM.

C[C@@H]1CN(c2nc3c(N4CCOCC4)nc(-c4cnc(N)nc4)nc3n2CC(F)(F)F)CCN1 [Example 59, 5-{8-[(3R)-3-Methylpiperazin-1-yl]-6-morpholin-4-yl-9-(2,2,2-trifluoroethyl)-9H-purin-2-yl}pyrimidin-2-amine] gave a GI50 [1] of at most 5000 nM, a GI50 [2] of at most 5000 nM and a GI50 [3] of at most 5000 nM. It also gave an IC50 [4] of under 10 nM and an IC50 [5] of 10 to 30 nM.

CC(C)Cn1c(N2CCN(C(=O)N(C)C)CC2)nc2c(N3CCOCC3)nc(-c3cnc(N)nc3)nc21 [Example 45, 4-[2-(2-Aminopyrimidin-5-yl)-9-isobutyl-6-morpholin-4-yl-9H-purin-8-yl]-N,N-dimethylpiperazine-1-carboxamide] gave a GI50 [1] of at most 5000 nM, a GI50 [2] of at most 5000 nM and a GI50 [3] of at most 5000 nM. It also gave an IC50 [4] of 20 to 50 nM and an IC50 [5] of 30 to 100 nM.
